According to ChEMBL document CHEMBL4334497, “Synthesis and Pharmacological Characterization of 2-(2,6-Dichlorophenyl)-1-((1S,3R)-5-(3-hydroxy-3-methylbutyl)-3-(hydroxymethyl)-1-methyl-3,4-dihydroisoquinolin-2(1H)-yl)ethan-1-one (LY3154207), a Potent, Subtype Selective, and Orally Available Positive Allosteric Modulator of the Human Dopamine …” (J Med Chem, 2019):
pEC50: −log10 of the molar value. ≈ marks a conversion by molar mass, not a printed value. Calls of active or inactive are those of the source. The rule behind the calls is not given here.

How the values were obtained:
[1] = AUC in CD1 mouse 10 mg/kg, po measured up to 24 hrs by LC-MS/MS.analysis; format: ADME, organism-based; design: dose 10 mg/kg, time < 24 hr, route oral; conditions: in vivo
[2] = Permeability from apical to basolateral side in MDCK2 cells stably expressing human wild-type ABCB1 at 5 uM incubated for 60 mins; format: ADME, cell-based, Canis lupus familiaris; conditions: dog, mdck-ii, 1 h
[3] = Unbound intrinsic clearance in mouse liver microsomes; format: ADME, Microsome
[4] = Unbound fraction in mouse liver microsomes by equilibrium dialysis assay; format: ADME, Microsome
[5] = Clearance in CD1 mouse 1 mg/kg, iv measured up to 24 hrs by LC-MS/MS.analysis; format: ADME, organism-based; conditions: in vivo
[6] = Volume of distribution at steady state in CD1 mouse 1 mg/kg, iv or 10 mg/kg, po measured up to 24 hrs by LC-MS/MS.analysis; format: ADME, organism-based; conditions: in vivo, read-out: Vdss
[7] = Oral bioavailability in CD1 mouse 10 mg/kg measured up to 24 hrs by LC-MS/MS.analysis; format: ADME, organism-based; conditions: in vivo
D(1A) dopamine receptor [8] = molecular target: T1, D(1A) dopamine receptor (Homo sapiens, UniProt P21728); assay: Positive allosteric modulator activity at human D1 receptor stably expressed in HEK293 cells assessed as potentiation of EC20 dopamine-induced cAMP accumulation incubated for 60 mins by HTRF assay relative to dopamine alone; format: functional, cell-based
T1 sequence (P21728 whole entry): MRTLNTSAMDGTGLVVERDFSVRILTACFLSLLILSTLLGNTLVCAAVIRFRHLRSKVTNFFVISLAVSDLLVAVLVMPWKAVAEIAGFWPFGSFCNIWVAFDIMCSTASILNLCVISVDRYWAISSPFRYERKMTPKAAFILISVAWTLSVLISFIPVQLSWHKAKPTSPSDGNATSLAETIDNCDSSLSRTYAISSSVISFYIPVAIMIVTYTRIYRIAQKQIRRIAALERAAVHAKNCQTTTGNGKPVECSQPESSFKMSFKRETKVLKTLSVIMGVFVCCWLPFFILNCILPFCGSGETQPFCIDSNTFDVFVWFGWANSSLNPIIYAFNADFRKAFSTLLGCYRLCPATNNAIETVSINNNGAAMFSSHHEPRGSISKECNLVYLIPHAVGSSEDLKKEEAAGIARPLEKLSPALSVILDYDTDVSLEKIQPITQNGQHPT

[9] = Unbound fraction in mouse plasma by equilibrium dialysis assay; format: ADME, cell-free
[10] = Unbound intrinsic clearance in human liver microsomes; format: ADME, Microsome
[11] = Half life in CD1 mouse 1 mg/kg, iv measured up to 24 hrs by LC-MS/MS.analysis; format: ADME, organism-based; conditions: in vivo
[12] = Unbound brain-to-plasma concentration ratio in mouse at 3 to 240 mg/kg, po by LC-MS/MS.analysis; format: ADME, organism-based; conditions: read-out: K(p,uu,brain)
[13] = Tmax in CD1 mouse 10 mg/kg, po measured up to 24 hrs by LC-MS/MS.analysis; format: ADME, organism-based; conditions: in vivo
[14] = Unbound fraction in mouse brain by equilibrium dialysis assay; format: ADME, tissue-based
[15] = Solubility of the compound in pH 6.0 buffer by high throughput solubility assay; format: physicochemical
D(1A) dopamine receptor [16] = molecular target: T1, D(1A) dopamine receptor; assay: Positive allosteric modulator activity at human D1 receptor stably expressed in HEK293 cells assessed as potentiation of EC20 dopamine-induced cAMP accumulation incubated for 60 mins by HTRF assay; format: functional, cell-based
[17] = AUC in CD1 mouse 1 mg/kg, iv measured up to 24 hrs by LC-MS/MS.analysis; format: ADME, organism-based; design: dose 1 mg/kg, time < 24 hr, route intravenous; conditions: in vivo
[18] = Cmax in CD1 mouse 10 mg/kg, po measured up to 24 hrs by LC-MS/MS.analysis; format: ADME, organism-based; design: dose 10 mg/kg, route oral; conditions: in vivo
Mus musculus [19] = assay: Induction of locomotor activity in human D1 receptor knock-in habituated transgenic mouse assessed as increase in total ambulations up to 10 mg/kg, sc measured for 60 mins after dosing by photocell beam monitoring based method; format: functional, organism-based
Mus musculus [20] = assay: Induction of locomotor activity in human D1 receptor knock-in habituated transgenic mouse assessed as increase in total ambulations at 30 to 60 mg/kg, sc measured for 60 mins after dosing by photocell beam monitoring based method; format: functional, organism-based
Mus musculus [21] = assay: Induction of locomotor activity in human D1 receptor knock-in habituated transgenic mouse assessed as increase in total ambulations at 10 mg/kg, sc measured from 60 to 90 mins after daily dosing on day 2 to 4 by photocell beam monitoring based method relative to control; format: functional, organism-based
Mus musculus [22] = assay: Induction of locomotor activity in human D1 receptor knock-in habituated transgenic mouse assessed as increase in total ambulations at 10 mg/kg, sc measured from 60 to 90 mins after daily dosing on day 1 by photocell beam monitoring based method relative to control; format: functional, organism-based

## C[C@H]1c2cccc(C(C)(C)O)c2C[C@H](CO)N1C(=O)Cc1c(Cl)cccc1Cl
[1]
  AUC at 24 h: 0.367 µM·h
[2]
  permeability: 14%
[3]
  CL free: 965 mL/min/kg
[4]
  fraction unbound: 0.711
[5]
  clearance: 96.9 mL/min/kg
[6]
  Vd: 1.65 L/kg
[7]
  bioavailability: 9%
D(1A) dopamine receptor [8]
  Emax: 93%
[9]
  fraction unbound: 0.051
[10]
  CL free: 43 mL/min/kg
[11]
  half-life: 13.8 min
[12]
  Kp uu: 1.1
[13]
  Tmax: 30 min
[14]
  fraction unbound: 0.055
[15]
  solubility: 116 µg/mL (≈ 275 µM)
D(1A) dopamine receptor [16]
  pEC50: 7.86
[17]
  AUC at 24 h: 0.406 µM·h
[18]
  Cmax: 219 nM

## C[C@H]1c2cccc(CC(C)(C)O)c2C[C@H](CO)N1C(=O)Cc1c(Cl)cccc1Cl
[3]
  CL free: 779 mL/min/kg
[10]
  CL free: 31 mL/min/kg
[15]
  solubility: 156 µg/mL (≈ 357 µM)
D(1A) dopamine receptor [16]
  pEC50: 7.12

## C=CCN1CCc2c(cc(O)c(O)c2Cl)C(c2ccccc2)C1 (stereo unspecified)
Mus musculus [19]
  Activity: Active
Mus musculus [20]
  Activity: inactive

## NC[C@@H]1O[C@H](C23CC4CC(CC(C4)C2)C3)Cc2c1ccc(O)c2O
Mus musculus [21]
  Activity: inactive
Mus musculus [22]
  Activity: Active
